Test results reported in patent US20020193425A1, “Cancer chemopreventative compounds and compositions and methods of treating cancers” (priority 2001, published 2002).
Like-named read-outs stand apart in the source and are kept apart here.

Tests used:
[1] = system: HL-60 (human promyelocytic) cells; assay: HL-60 cell differentiation of quassinoids, NBT reduction; type: cell-based
Method: (§1) Induction of differentiation was determined by the ability of treated cells to produce superoxide anions (nitroblue tetrazolium (NBT)-reduction), a functional marker of mature macrophages or granulocytes. Proliferation capacity is equivalent to cell growth and was measured by incorporation of [3H]thymidine into DNA over a period of 18 h, and cytotoxic activity was evaluated by the loss of membrane integrity as shown by trypan blue exclusion. […] Although members of the brusatol and glaucarubolone series were active, when comparing members of both series that varied only in the positioning of the epoxymethano bridge, great differences were noted, as shown with yadianzolide C (5) and glaucarubolone (24), and analogues 4 (brusatol series) and 32 (glaucarubolone series).
(§2) HL-60 (human promyelocytic) cells were tested using a 4-day incubation protocol. In brief, cells in log phase (approximately 10^6 cells/mL) were diluted to […] and preincubated overnight (18 h) in 24-well plates to allow cell-growth recovery. Then, samples dissolved in DMSO were added, keeping the final DMSO concentration at 0.1% (v/v). Control cultures were treated with the same concentration of DMSO. After 4 days of incubation, the cells were analyzed to determine the percentage of cells undergoing maturation as determined by NBT reduction. Concomitantly, the effect on viability and proliferation of HL-60 cells was determined. In each experiment, 1α, 25-dihydroxyvitamin D3 (EC50=0.01 μM) and brusatol (EC50=0.07 μM) were used as reference controls. EC50 and IC50 values were calculated using 5-7 test concentrations (in duplicate), and consistent results were obtained, indicating the data reported for the related quassinoids are reliable.
(1) Nitroblue Tetrazolium (NBT) Reduction. Evaluation of NBT reduction was used to assess the ability of sample-treated HL-60 cells to produce superoxide when challenged with 12-O-tetradecanoylphorbol 13-acetate (TPA). A 1:1 v/v) mixture of a cell suspension (10^6 cells) and TPA/NBT solution (2 mg/mL NBT and 1 μg/mL TPA in phosphate buffered solution) was incubated for 1 h at 37° C. Positive cells reduce NBT yielding intracellular black-blue formazan deposits, which were quantified by microscopic examination of >200 cells. Results were expressed as a percentage of positive cells.

[2] = system: human promyelocytic leukemia (HL-60) cells; conditions: cited from earlier work
[3] = system: HL-60 (human promyelocytic) cells; assay: HL-60 cell proliferation assay of quassinoids, [3H]thymidine incorporation; type: cell-based; conditions: for IC50: 4-day incubation, [3H]thymidine incorporation, read-out: inhibition of proliferation (IC50)
Method: as §1, §2
(3) Cell Proliferation Assay. […] Cells were then collected on glass fiber filters (90×120 mm; Wallac, Turku, Finland) using a TOMTEC Harvester 96®.

[4] = HL-60 cytotoxicity of quassinoids, trypan blue exclusion; type: cell-based, human; conditions: human, HL-60 cells; HL-60; 4-day incubation; trypan blue exclusion; read-out: cytotoxicity (IC50)
Method: as §1, §2
(§3) (2) Cytotoxicity. Since loss of membrane integrity is an early feature of necrotic cells and a late feature of apoptotic cells, trypan blue, a […] blue dye, was used to stain cells with compromised plasma membranes, while leaving intact cells unstained. Cells […] of trypan blue (0.2% w/v in PBS), incubated for at least 5 min at room temperature, and counted using a hematocytometer. Viability percentages were calculated with duplicate samples.

[5] = system: DMBA-induced preneoplastic lesion formation in mouse mammary organ culture; assay: Inhibition of DMBA-induced preneoplastic lesion formation in mouse mammary organ culture (MMOC); type: cell-based; conditions: for % inhibition of DMBA-induced preneoplastic lesion formation: quassinoid (2 μM), in comparison with a DMBA control
Method: The identification of potential inhibitors of DMBA-induced preneoplastic lesion formation in mammary organ culture has been described previously. Briefly, four-week old BALB/c female mice (Charles River) were pretreated for nine days with 1 μg estradiol and 1 mg progesterone. The thoracic pair of mammary glands was dissected on silk and incubated with growth-promoting hormones in the presence of test compounds (2 μM) for 10 days. DMBA ([…]) was included in the medium (containing […]) for 24 hours on the third day of culture to induce preneoplastic mammary lesions. Following 10 days of growth promoting phase, all hormones except insulin were withdrawn and the glands were allowed to regress to lobuloalveolar structures during a 14-day incubation period. Glands then were fixed in 10% buffered formalin and stained with alum carmine. Incidence of lesion formation (percentage of glands per group with mammary lesions) was recorded, and percent inhibition was calculated by comparison with the DMBA control group that was not treated with test sample. Active samples induce 60% inhibition, based on historical controls.

[6] = system: HL-60 (human promyelocytic) cells; assay: HL-60 cytotoxicity of quassinoids, trypan blue exclusion; type: cell-based; conditions: HL-60; 4-day incubation; trypan blue exclusion
Method: as §1, §2, §3

[7] = HL-60, 4-day incubation, NBT-reduction, read-out: induction of differentiation (EC50)
[8] = Homo sapiens, HL-60, 96 h, read-out: induction of differentiation (EC50, μM)

Compound | EC50 [1, 7] [µM] | IC50 [3] [nM] | IC50 [6] [nM] | further results
C=C1/C(=C\C=C2/CCC[C@]3(C)[C@@H]([C@H](C)CCCC(C)(C)O)CC[C@@H]23)C[C@@H](O)C[C@@H]1O [1α, 25-dihydroxyvitamin D3, reference compound] | 0.01 |  |  | 
C[C@@]1(CO)[C@H](O)CC[C@@]2(C)[C@H]1CC[C@H]1C[C@@H]3C[C@@]12CC[C@]3(O)CO [aphidicolin, reference compound] |  |  |  | maturation of HL-60 cells ([1]; data not shown): incapable of inducing maturation
COc1cc([C@H]2Oc3c(OC)cc4ccc(=O)oc4c3O[C@@H]2CO)ccc1O [cleomiscosin A] |  |  |  | activity in the HL-60 test system [2]: inactive
CC[C@@](C)(OC(C)=O)C(=O)O[C@H]1C(=O)O[C@@H]2C[C@H]3C(C)=CC(=O)[C@@H](O)[C@]3(C)[C@H]3[C@@H](O)[C@H](O)[C@@]4(C)OC[C@]32[C@@H]14 [compound 3, quassimarin] |  |  |  | IC50 ([3]; Homo sapiens): 60 ± 5 nM; selectivity index ([3]; ratio of cytotoxic IC50 over antiproliferative IC50): 2.2 ± 0.5; EC50 [1, 8]: 0.09 ± 0.001 µM; IC50 at 4 days [4]: 130 ± 8 nM
CC[C@@H](C)C(=O)O[C@H]1C(=O)O[C@@H]2C[C@H]3C(C)=CC(=O)[C@@H](O)[C@]3(C)[C@H]3[C@@H](O)[C@H](O)[C@@]4(C)OC[C@]32[C@@H]14 [compound 4, simalikalactone D] |  |  |  | IC50 ([3]; Homo sapiens): > 200 nM; EC50 [1, 8]: > 0.2 µM; IC50 at 4 days [4]: 200 ± 40 nM
CC[C@@](O)(CC(=O)O[C@@H]1C(=O)O[C@@H]2C[C@@H]3C(C)=CC(=O)[C@H](O)[C@]3(C)[C@H]3[C@]4(O)OC[C@]32[C@@H]1[C@@H](C)[C@H]4O)C(C)C [compound 10, Peninsularinone] | 0.019 ± 0.0004 | 9 ± 1 | 13 ± 1 | activity in the MMOC model ([5]; at concentrations as high as 2 mM): inactive; % inhibition of DMBA-induced preneoplastic lesion formation [5]: 44%
CC1=CC(=O)[C@@H](O)[C@]2(C)[C@H]3[C@]4(O)OC[C@]35[C@H]([C@@H](C)[C@H]4O)[C@@H](O)C(=O)O[C@@H]5C[C@@H]12 [compound 24, glaucarubolone] | ~1.3 | 400 ± 30 | 1300 ± 200 | 
CC[C@](C)(O)C(=O)O[C@H]1C(=O)O[C@@H]2C[C@H]3C(C)=CC(=O)[C@@H](O)[C@]3(C)[C@H]3[C@@]4(O)OC[C@]32[C@@H]1[C@@H](C)[C@H]4O [compound 25, glaucarubinone] | 1.8 ± 0.09 | 500 ± 90 | 1000 ± 100 | 
CC1=CC(=O)[C@@H](O)[C@]2(C)[C@H]3[C@@]4(O)OC[C@@]35[C@@H](C[C@@H]12)OC(=O)C[C@H]5[C@@H](C)[C@H]4O [compound 26, chaparrinone] | ~2.4 | 1200 ± 200 | 5000 ± 300 | % inhibition of DMBA-induced preneoplastic lesion formation [5]: 25%
bruceoside B |  |  |  | activity in the HL-60 test system [2]: inactive
samaderin B [compound 48] | 1 ± 0.02 | 400 ± 50 | > 2000 | % inhibition of DMBA-induced preneoplastic lesion formation [5]: 0%
yadanziolide C [compound 5] | 10 ± 1.5 | 1500 ± 80 | > 10000 | 
